Test results published in PMC6211316, “Synthesis and biological evaluation of 3-arylcoumarin derivatives as potential anti-diabetic agents” (Journal of Enzyme Inhibition and Medicinal Chemistry, 2018).

Legend:
[1] = DPPH free radical scavenging; details: mean ± SD (n = 3)
Outline: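 Sample solutions at various concentrations mixed 1:1 with DPPH (0.04 mg/mL) and reacted 30 min at room temperature; absorbance read at 517 nm against ethanol blank, corrected for sample absorbance. Scavenging % calculated versus DPPH alone, triplicate measurements, IC50 derived.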

STZ-diabetic mice = assay: Acute hypoglycemic assay in STZ-diabetic mice; format: in vivo; details: for hypoglycemic effect: STZ-diabetic animals, 30 mg/kg of bw, started from 3 h and persisted throughout the experiment; for highest anti-hyperglycemic effect: STZ-diabetic mice; for Blood glucose concentration / % Variation of glycemia: STZ-diabetics mice
Protocol: Type II diabetes mellitus was induced in mice by a single intraperitoneal injection of freshly prepared STZ (Sigma Aldrich) dissolved in 0.1M citrate buffer, pH 4.5, in a volume of 110 mg/kg of bw. After 7 days of STZ administration, blood glucose levels of each mouse were determined. Mice with blood glucose levels higher than 11 mM were considered diabetic and were included in the study.
STZ-induced diabetic mice and normal mice were placed in single cages with wire-net floors and deprived of food for 12 h before experimentation but allowed free access to tap water throughout. The compounds (at the doses of 10, 30, and 100 mg/kg of bw) were suspended in 0.05% Tween-80 in saline solution. Glibenclamide (10 mg/kg of bw) was suspended in the same vehicle. The target compounds were freshly prepared immediately before experimentation and administered by the intragastrical route at the doses of 10 ml/kg of bw. Control mice received only the vehicle (0.05% Tween-80 in saline solution) by the same route. Blood glucose levels were measured at 0, 1.5, 3, 5, 7, and 9 h after drugs administration.

AGEs formation = assay: In vitro inhibitory activity of AGEs formation (bovine serum albumin/glucose); format: biochemical; details: mean ± SD (n = 3)
Outline: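 Bovine serum albumin (10 mg/mL) with 0.2 M glucose in 50 mM PBS, pH 7.4, plus 0.02% sodium azide, was mixed with compound solutions (0.5–1000 μg/mL in DMSO) and held 14 d at 37 °C. AGE fluorescence was read at ex 350/em 420 nm in triplicate. Inhibition was corrected with glucose-free blanks, and IC50 calculated.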

[2] = Oral toxicity to mice (Lorke's method); details: both sexes, mouse, in vivo, Kunming mice, observed 14 days
Protocol: With reference to Lorke’s method, kunming mice were used as targets to estimate the oral toxicity of each compound to mice. We select compounds 11, 17, 25, 28, and 35 at concentrations of 10, 100, and 1000 mg/kg to test their oral toxicity in the first phase, and 1600, 2900, and 5000 mg/kg at the second phase.
Experiments were performed on Kunming mice (male and female half, bw range, 25–30 g). Mice were housed in a climate and light controlled room with a 12 h light/dark cycle. Twelve hours before experiments, food was withheld, but animals had free access to drinking water. The compounds were suspended in vehicle (Tween-80, 0.2% in saline). The concentrations were adjusted to orally administrate 0.2 ml/10 g of bw. Mice were treated in two phases. In the first, intragastric doses of 10, 100 and 1000 mg/kg of bw of compounds were administered. On the second, the doses were adjusted to 1600, 2900, and 5000 mg/kg of bw of compounds. In both phases, mice were observed daily in a period of 14 days for mortality, toxic effects and/or changes in behavioural pattern. At the end of the experiments, the mice were sacrificed in a CO2 chamber.

Row | SMILES | IC50 [1] [µM] | hypoglycemic effect (STZ-diabetic mice) [%] | highest anti-hyperglycemic effect (STZ-diabetic mice; 30 mg/kg, at 9 h) [%] | Blood glucose concentration (STZ-diabetic mice; 10 mg/kg of bw per os, 0h) [mM] | % Variation of glycemia (STZ-diabetic mice; 10 mg/kg of bw per os, 1.5h) | Blood glucose concentration (STZ-diabetic mice; 10 mg/kg of bw per os, 1.5h) [mM] | % Variation of glycemia (STZ-diabetic mice; 10 mg/kg of bw per os, 3h) | Blood glucose concentration (STZ-diabetic mice; 10 mg/kg of bw per os, 3h) [mM] | % Variation of glycemia (STZ-diabetic mice; 10 mg/kg of bw per os, 5h) | Blood glucose concentration (STZ-diabetic mice; 10 mg/kg of bw per os, 5h) [mM] | % Variation of glycemia (STZ-diabetic mice; 10 mg/kg of bw per os, 7h) | Blood glucose concentration (STZ-diabetic mice; 10 mg/kg of bw per os, 7h) [mM] | % Variation of glycemia (STZ-diabetic mice; 10 mg/kg of bw per os, 9h) | Blood glucose concentration (STZ-diabetic mice; 10 mg/kg of bw per os, 9h) [mM] | Blood glucose concentration (STZ-diabetic mice; 30 mg/kg of bw per os, 0h) [mM] | % Variation of glycemia (STZ-diabetic mice; 30 mg/kg of bw per os, 1.5h) | Blood glucose concentration (STZ-diabetic mice; 30 mg/kg of bw per os, 1.5h) [mM] | % Variation of glycemia (STZ-diabetic mice; 30 mg/kg of bw per os, 3h) | Blood glucose concentration (STZ-diabetic mice; 30 mg/kg of bw per os, 3h) [mM] | % Variation of glycemia (STZ-diabetic mice; 30 mg/kg of bw per os, 5h) | also measured
1 | O=c1oc2ccc(O)cc2cc1-c1ccc(O)cc1 [Compound 17, 6-Hydroxy-3-(4-hydroxyphenyl)-coumarin] | 163 ± 7.13 | > 50 | ~70.39 | 26.9 ± 3.8 | (−8.92) % | 24.5 ± 3.0 | (−15.24) % | 22.8 ± 2.3 | (−38.29) % | 16.6 ± 5.8 | (−44.98) % | 14.8 ± 8.0 | (−45.35) % | 14.7 ± 9.5 | 23.3 ± 3.2 | (−23.18) % | 17.9 ± 5.7 | (−50.22) % | 11.6 ± 4.8 | (−64.38) % | highest anti-hyperglycemic effect (STZ-diabetic mice; 100 mg/kg, at 7 h): ~70.51%; Blood glucose concentration (STZ-diabetic mice; 30 mg/kg of bw per os, 5h): 8.3 ± 3.8 mM; % Variation of glycemia (STZ-diabetic mice; 30 mg/kg of bw per os, 7h): (−68.24) %; Blood glucose concentration (STZ-diabetic mice; 30 mg/kg of bw per os, 7h): 7.4 ± 6.7 mM; % Variation of glycemia (STZ-diabetic mice; 30 mg/kg of bw per os, 9h): (−70.39) %; Blood glucose concentration (STZ-diabetic mice; 30 mg/kg of bw per os, 9h): 6.9 ± 7.9 mM; Blood glucose concentration (STZ-diabetic mice; 100 mg/kg of bw per os, 0h): 23.4 ± 5.7 mM; % Variation of glycemia (STZ-diabetic mice; 100 mg/kg of bw per os, 1.5h): (−19.66) %; Blood glucose concentration (STZ-diabetic mice; 100 mg/kg of bw per os, 1.5h): 18.8 ± 6.0 mM; % Variation of glycemia (STZ-diabetic mice; 100 mg/kg of bw per os, 3h): (−46.58) %; Blood glucose concentration (STZ-diabetic mice; 100 mg/kg of bw per os, 3h): 12.5 ± 4.7 mM; % Variation of glycemia (STZ-diabetic mice; 100 mg/kg of bw per os, 5h): (−67.52) %; Blood glucose concentration (STZ-diabetic mice; 100 mg/kg of bw per os, 5h): 7.6 ± 3.8 mM; % Variation of glycemia (STZ-diabetic mice; 100 mg/kg of bw per os, 7h): (−70.51) %; Blood glucose concentration (STZ-diabetic mice; 100 mg/kg of bw per os, 7h): 6.9 ± 2.6 mM; % Variation of glycemia (STZ-diabetic mice; 100 mg/kg of bw per os, 9h): (−65.81) %; Blood glucose concentration (STZ-diabetic mice; 100 mg/kg of bw per os, 9h): 8.0 ± 2.3 mM; IC50 (AGEs formation): 24.68 ± 0.12 µM; LD50 at 14 days [2]: > 5000 mg/kg
2 | COc1ccc(-c2cc3c(O)cc(O)cc3oc2=O)cc1 [Compound 35, 5,7-Dihydroxy-3-(4-methoxyphenyl)-coumarin] | 155 ± 10.5 | > 50 | ~74.54 | 20.5 ± 7.1 | (−36.10) % | 13.1 ± 6.4 | (−47.81) % | 10.7 ± 5.7 | (−72.68) % | 5.6 ± 3.1 | (−73.66) % | 5.4 ± 3.4 | (−72.20) % | 5.7 ± 3.1 | 21.6 ± 4.4 | (−44.44) % | 12.0 ± 3.7 | (−51.39) % | 10.5 ± 5.1 | (−70.83) % | highest anti-hyperglycemic effect (STZ-diabetic mice; 10 mg/kg, at 7 h): ~73.66%; Blood glucose concentration (STZ-diabetic mice; 30 mg/kg of bw per os, 5h): 6.3 ± 4.3 mM; % Variation of glycemia (STZ-diabetic mice; 30 mg/kg of bw per os, 7h): (−73.61) %; Blood glucose concentration (STZ-diabetic mice; 30 mg/kg of bw per os, 7h): 5.7 ± 6.7 mM; % Variation of glycemia (STZ-diabetic mice; 30 mg/kg of bw per os, 9h): (−74.54) %; Blood glucose concentration (STZ-diabetic mice; 30 mg/kg of bw per os, 9h): 5.5 ± 5.2 mM; Blood glucose concentration (STZ-diabetic mice; 100 mg/kg of bw per os, 0h): 20.3 ± 4.4 mM; % Variation of glycemia (STZ-diabetic mice; 100 mg/kg of bw per os, 1.5h): (−25.62) %; Blood glucose concentration (STZ-diabetic mice; 100 mg/kg of bw per os, 1.5h): 15.1 ± 5.0 mM; % Variation of glycemia (STZ-diabetic mice; 100 mg/kg of bw per os, 3h): (−48.28) %; Blood glucose concentration (STZ-diabetic mice; 100 mg/kg of bw per os, 3h): 10.5 ± 4.9 mM; % Variation of glycemia (STZ-diabetic mice; 100 mg/kg of bw per os, 5h): (−64.53) %; Blood glucose concentration (STZ-diabetic mice; 100 mg/kg of bw per os, 5h): 7.2 ± 2.6 mM; % Variation of glycemia (STZ-diabetic mice; 100 mg/kg of bw per os, 7h): (−64.53) %; Blood glucose concentration (STZ-diabetic mice; 100 mg/kg of bw per os, 7h): 7.2 ± 3.9 mM; % Variation of glycemia (STZ-diabetic mice; 100 mg/kg of bw per os, 9h): (−68.47) %; Blood glucose concentration (STZ-diabetic mice; 100 mg/kg of bw per os, 9h): 6.4 ± 2.0 mM; IC50 (AGEs formation): 5.21 ± 0.07 µM; LD50 at 14 days [2]: > 5000 mg/kg
